# According to PMC11079024, “Identification of a family of species-selective complex I inhibitors as potential anthelmintics” (Nature Communications, 2024):
# Where “and” joins values, the source holds several entries; their conditions need not be identical. Equal entries are not always repeated. Where two headings read alike, the source gives them in different places.
# Tests used:
# [1] = target: C. elegans (N2) complex I (NADH:ubiquinone oxidoreductase) (Caenorhabditis elegans, UniProt P24887+Q93873+Q94360); experiment: biochemical; format: biochemical; conditions: for Log IC50 C. elegans complex I: log10 of IC50 in µM
# C. elegans (N2) complex I (NADH:ubiquinone oxidoreductase), sequence (Q94360 17-199): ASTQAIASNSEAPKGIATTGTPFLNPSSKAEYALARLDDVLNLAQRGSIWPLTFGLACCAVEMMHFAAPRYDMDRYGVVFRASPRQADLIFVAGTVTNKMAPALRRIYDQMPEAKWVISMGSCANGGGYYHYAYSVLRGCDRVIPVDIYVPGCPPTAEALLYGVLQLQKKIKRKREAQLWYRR
# C. elegans (N2) complex I (NADH:ubiquinone oxidoreductase), sequence (P24887 whole entry): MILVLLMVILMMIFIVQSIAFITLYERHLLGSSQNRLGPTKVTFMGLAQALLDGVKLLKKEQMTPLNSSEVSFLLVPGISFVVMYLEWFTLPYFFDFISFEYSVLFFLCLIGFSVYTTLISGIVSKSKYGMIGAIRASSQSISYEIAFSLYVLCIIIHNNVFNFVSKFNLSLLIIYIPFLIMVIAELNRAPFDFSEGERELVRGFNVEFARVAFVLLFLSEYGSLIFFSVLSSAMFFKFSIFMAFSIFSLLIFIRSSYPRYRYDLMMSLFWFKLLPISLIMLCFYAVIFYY
# C. elegans (N2) complex I (NADH:ubiquinone oxidoreductase), sequence (Q93873 31-482): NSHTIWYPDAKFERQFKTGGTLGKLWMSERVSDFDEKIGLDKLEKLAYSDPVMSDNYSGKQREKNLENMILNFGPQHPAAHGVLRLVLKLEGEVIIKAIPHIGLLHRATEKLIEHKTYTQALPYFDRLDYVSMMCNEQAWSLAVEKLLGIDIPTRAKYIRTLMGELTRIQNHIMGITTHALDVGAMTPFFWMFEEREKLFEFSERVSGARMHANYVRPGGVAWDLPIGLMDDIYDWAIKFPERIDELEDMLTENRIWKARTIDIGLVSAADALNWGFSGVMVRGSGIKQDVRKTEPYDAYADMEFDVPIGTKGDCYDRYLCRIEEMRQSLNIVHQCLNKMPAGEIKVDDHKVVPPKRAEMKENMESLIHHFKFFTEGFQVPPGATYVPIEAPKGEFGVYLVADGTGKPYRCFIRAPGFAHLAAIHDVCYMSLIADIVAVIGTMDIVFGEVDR
# In short: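 Compounds were tested against freeze-thawed isolated mitochondria (0.2 mg/mL protein). NADH:decylubiquinone activity was monitored via DCIP absorbance at 600 nm, and the initial linear slope was normalised to solvent controls.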
# [2] = tested on: L1 wild-type C. elegans; experiment: microbe, parasite or virus in culture; conditions: Caenorhabditis elegans
# [3] = target: B. taurus (heart) complex I (Bos taurus, UniProt P03887+P17694+P42026); experiment: biochemical; format: biochemical; conditions: for IC50: B. taurus heart mitochondria, estimated from fitted dose-response curves, read-out: B. taurus Complex I IC50; for Log IC50 B. taurus complex I: log10 of IC50 in µM, B. taurus mitochondria
# B. taurus (heart) complex I, sequence (P03887 whole entry): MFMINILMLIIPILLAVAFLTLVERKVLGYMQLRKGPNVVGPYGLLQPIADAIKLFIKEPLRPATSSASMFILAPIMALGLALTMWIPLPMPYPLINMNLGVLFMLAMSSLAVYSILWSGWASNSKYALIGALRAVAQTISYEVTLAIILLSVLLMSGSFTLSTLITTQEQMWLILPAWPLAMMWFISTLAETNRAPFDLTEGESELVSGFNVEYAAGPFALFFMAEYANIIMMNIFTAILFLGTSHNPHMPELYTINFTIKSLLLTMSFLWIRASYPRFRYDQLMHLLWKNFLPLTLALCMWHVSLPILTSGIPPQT
# B. taurus (heart) complex I, sequence (P17694 34-463): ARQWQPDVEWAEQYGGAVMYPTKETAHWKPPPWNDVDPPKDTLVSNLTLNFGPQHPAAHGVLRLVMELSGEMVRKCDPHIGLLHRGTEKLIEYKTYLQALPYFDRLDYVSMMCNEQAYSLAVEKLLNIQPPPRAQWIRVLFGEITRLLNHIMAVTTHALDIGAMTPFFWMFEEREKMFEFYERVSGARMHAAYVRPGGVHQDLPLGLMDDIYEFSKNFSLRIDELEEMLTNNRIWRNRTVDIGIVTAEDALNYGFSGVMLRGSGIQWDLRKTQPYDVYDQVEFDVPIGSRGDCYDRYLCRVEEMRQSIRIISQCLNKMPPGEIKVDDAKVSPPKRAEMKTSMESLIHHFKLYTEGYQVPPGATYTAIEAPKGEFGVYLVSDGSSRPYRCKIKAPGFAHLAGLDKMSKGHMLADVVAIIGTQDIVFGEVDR
# B. taurus (heart) complex I, sequence (P42026 38-216): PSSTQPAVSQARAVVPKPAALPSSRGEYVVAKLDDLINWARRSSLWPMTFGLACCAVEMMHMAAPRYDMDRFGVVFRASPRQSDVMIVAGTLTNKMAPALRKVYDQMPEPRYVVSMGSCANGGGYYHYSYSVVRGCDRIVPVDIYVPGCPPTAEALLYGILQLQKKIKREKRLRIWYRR
# In short: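 Complex I activity followed as DCIP reduction (600 nm, 30 s reads, 15 min) with 80 μM NADH and 60 μM decylubiquinone in 25 mM KPi pH 7.5 containing 2 μM antimycin A and 2 mM KCN. Freeze-thawed mouse or bovine heart mitochondria at 0.2 mg/mL; initial-rate percent of solvent control, single-point 100 μM or dose-response.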
# [4] = in vitro complex I dose response on C. elegans mitochondria, average of at least two biological replicates, fit in R (DRC), read-out: IC50 C. elegans complex I
# [5] = wild-type (N2) mitochondria, read-out: C. elegans Complex I IC50
# [6] = wild-type C. elegans mitochondria, estimated from fitted dose-response curves, read-out: C. elegans Complex I IC50
structure (smiles),measurement,setting,value
Cc1ccc2nc(C(C)c3ccc(CC(C)C)cc3)[nH]c2c1 (centres unmarked) [STL482096],IC50,[1]; [4],910 nM
same,Log IC50 C. elegans complex I,[1]; C. elegans mitochondria,-0.04 µM
same,IC50,[1]; [5],910 nM
same,IC50,[1]; [6],910 nM
same,LC50,"[2]; read-out: C. elegans KCN Survival Assay LC50, estimated from fitted dose-response curves, mean of at least two biological replicates",6760 nM
same,IC50,[3],12300 nM
same,Log IC50 B. taurus complex I,[3],1.09 µM
Cc1nc2ccccc2n1Cc1ccc(Cl)cc1 [STK697993],remaining activity at 0.0001 µM,"[1]; C. elegans mitochondria, 0.0001 µM, Mean, read-out: in vitro complex I activity relative to solvent control",93.5%
same,remaining activity at 0.0001 µM,"[1]; C. elegans mitochondria, 0.0001 µM, single replicate, read-out: in vitro complex I activity relative to solvent control",90.1%
same,remaining activity at 0.0005 µM,"[1]; C. elegans mitochondria, 0.0005 µM, Mean, read-out: in vitro complex I activity relative to solvent control",93.4%
same,remaining activity at 0.0005 µM,"[1]; C. elegans mitochondria, 0.0005 µM, single replicate, read-out: in vitro complex I activity relative to solvent control",89.1%
same,remaining activity at 0.001 µM,"[1]; C. elegans mitochondria, 0.001 µM, Mean, read-out: in vitro complex I activity relative to solvent control",92.2%
same,remaining activity at 0.0025 µM,"[1]; C. elegans mitochondria, 0.0025 µM, Mean, read-out: in vitro complex I activity relative to solvent control",89.9%
same,remaining activity at 0.005 µM,"[1]; C. elegans mitochondria, 0.005 µM, Mean, read-out: in vitro complex I activity relative to solvent control",93.8%
same,remaining activity at 0.013 µM,"[1]; C. elegans mitochondria, 0.013 µM, Mean, read-out: in vitro complex I activity relative to solvent control",89.4%
same,remaining activity at 0.025 µM,"[1]; C. elegans mitochondria, 0.025 µM, Mean, read-out: in vitro complex I activity relative to solvent control",79.6%
same,remaining activity at 0.025 µM,"[1]; C. elegans mitochondria, 0.025 µM, single replicate, read-out: in vitro complex I activity relative to solvent control",81.1%
same,remaining activity at 0.063 µM,"[1]; C. elegans mitochondria, 0.063 µM, Mean, read-out: in vitro complex I activity relative to solvent control",59.3%
same,remaining activity at 0.063 µM,"[1]; C. elegans mitochondria, 0.063 µM, single replicate, read-out: in vitro complex I activity relative to solvent control",58.9%
same,remaining activity at 0.125 µM,"[1]; C. elegans mitochondria, 0.125 µM, Mean, read-out: in vitro complex I activity relative to solvent control",46.1%
same,remaining activity at 0.125 µM,"[1]; C. elegans mitochondria, 0.125 µM, single replicate, read-out: in vitro complex I activity relative to solvent control",47%
same,remaining activity at 0.313 µM,"[1]; C. elegans mitochondria, 0.313 µM, Mean, read-out: in vitro complex I activity relative to solvent control",24.1%
same,remaining activity at 0.313 µM,"[1]; C. elegans mitochondria, 0.313 µM, single replicate, read-out: in vitro complex I activity relative to solvent control",23.6%
same,remaining activity at 0.625 µM,"[1]; C. elegans mitochondria, 0.625 µM, Mean, read-out: in vitro complex I activity relative to solvent control",15.5%
same,remaining activity at 0.625 µM,"[1]; C. elegans mitochondria, 0.625 µM, single replicate, read-out: in vitro complex I activity relative to solvent control",16.8%
same,remaining activity at 1.5 µM,"[1]; C. elegans mitochondria, 1.5 µM, Mean, read-out: in vitro complex I activity relative to solvent control",6.88%
same,remaining activity at 3 µM,"[1]; C. elegans mitochondria, 3 µM, Mean, read-out: in vitro complex I activity relative to solvent control",4.54%
same,remaining activity at 15 µM,"[1]; C. elegans mitochondria, 15 µM, Mean, read-out: in vitro complex I activity relative to solvent control",3.15%
same,remaining activity at 37.5 µM,"[1]; C. elegans mitochondria, 37.5 µM, Mean, read-out: in vitro complex I activity relative to solvent control",1.66%
same,remaining activity at 75 µM,"[1]; C. elegans mitochondria, 75 µM, Mean, read-out: in vitro complex I activity relative to solvent control",1.29%
same,remaining activity at 0.0001 µM,"[1]; dose 0.0001 µM, wild-type C. elegans, mean of replicates, read-out: in vitro complex I activity relative to solvent control, Mean",93.5%
same,"in vitro complex I activity relative to solvent control, individual replicate","[1]; dose 0.0001 µM, wild-type C. elegans, single replicate",99.582% and 83.147% and 101.146%
same,remaining activity at 0.0001 µM,"[1]; dose 0.0001 µM, wild-type C. elegans, single replicate, read-out: in vitro complex I activity relative to solvent control, individual replicate",90.1%
same,remaining activity at 0.0005 µM,"[1]; dose 0.0005 µM, wild-type C. elegans, mean of replicates, read-out: in vitro complex I activity relative to solvent control, Mean",93.4%
same,"in vitro complex I activity relative to solvent control, individual replicate","[1]; dose 0.0005 µM, wild-type C. elegans, single replicate",96.982% and 84.926% and 102.628%
same,remaining activity at 0.0005 µM,"[1]; dose 0.0005 µM, wild-type C. elegans, single replicate, read-out: in vitro complex I activity relative to solvent control, individual replicate",89.1%
same,remaining activity at 0.001 µM,"[1]; dose 0.001 µM, wild-type C. elegans, mean of replicates, read-out: in vitro complex I activity relative to solvent control, Mean",92.2%
same,"in vitro complex I activity relative to solvent control, individual replicate","[1]; dose 0.001 µM, wild-type C. elegans, single replicate",93.635% and 85.360% and 84.052% and 105.930%
same,remaining activity at 0.0025 µM,"[1]; dose 0.0025 µM, wild-type C. elegans, mean of replicates, read-out: in vitro complex I activity relative to solvent control, Mean",89.9%
same,"in vitro complex I activity relative to solvent control, individual replicate","[1]; dose 0.0025 µM, wild-type C. elegans, single replicate",94.908% and 85.958% and 78.987% and 99.629%
same,remaining activity at 0.005 µM,"[1]; dose 0.005 µM, wild-type C. elegans, mean of replicates, read-out: in vitro complex I activity relative to solvent control, Mean",93.8%
same,"in vitro complex I activity relative to solvent control, individual replicate","[1]; dose 0.005 µM, wild-type C. elegans, single replicate",110.821% and 90.887% and 82.153% and 91.307%
same,remaining activity at 0.013 µM,"[1]; dose 0.013 µM, wild-type C. elegans, mean of replicates, read-out: in vitro complex I activity relative to solvent control, Mean",89.4%
same,"in vitro complex I activity relative to solvent control, individual replicate","[1]; dose 0.013 µM, wild-type C. elegans, single replicate",104.424% and 80.938% and 77.600% and 94.576%
same,remaining activity at 0.025 µM,"[1]; dose 0.025 µM, wild-type C. elegans, mean of replicates, read-out: in vitro complex I activity relative to solvent control, Mean",79.6%
same,"in vitro complex I activity relative to solvent control, individual replicate","[1]; dose 0.025 µM, wild-type C. elegans, single replicate",79.265% and 72.113% and 85.782%
same,remaining activity at 0.025 µM,"[1]; dose 0.025 µM, wild-type C. elegans, single replicate, read-out: in vitro complex I activity relative to solvent control, individual replicate",81.1%
same,remaining activity at 0.063 µM,"[1]; dose 0.063 µM, wild-type C. elegans, mean of replicates, read-out: in vitro complex I activity relative to solvent control, Mean",59.3%
same,"in vitro complex I activity relative to solvent control, individual replicate","[1]; dose 0.063 µM, wild-type C. elegans, single replicate",58.500% and 52.939% and 67.015%
same,remaining activity at 0.063 µM,"[1]; dose 0.063 µM, wild-type C. elegans, single replicate, read-out: in vitro complex I activity relative to solvent control, individual replicate",58.9%
same,remaining activity at 0.125 µM,"[1]; dose 0.125 µM, wild-type C. elegans, mean of replicates, read-out: in vitro complex I activity relative to solvent control, Mean",46.1%
same,"in vitro complex I activity relative to solvent control, individual replicate","[1]; dose 0.125 µM, wild-type C. elegans, single replicate",44.996% and 42.086% and 50.202%
same,remaining activity at 0.125 µM,"[1]; dose 0.125 µM, wild-type C. elegans, single replicate, read-out: in vitro complex I activity relative to solvent control, individual replicate",47%
same,remaining activity at 0.313 µM,"[1]; dose 0.313 µM, wild-type C. elegans, mean of replicates, read-out: in vitro complex I activity relative to solvent control, Mean",24.1%
same,"in vitro complex I activity relative to solvent control, individual replicate","[1]; dose 0.313 µM, wild-type C. elegans, single replicate",25.635% and 20.651% and 26.550%
same,remaining activity at 0.313 µM,"[1]; dose 0.313 µM, wild-type C. elegans, single replicate, read-out: in vitro complex I activity relative to solvent control, individual replicate",23.6%
same,remaining activity at 0.625 µM,"[1]; dose 0.625 µM, wild-type C. elegans, mean of replicates, read-out: in vitro complex I activity relative to solvent control, Mean",15.5%
same,"in vitro complex I activity relative to solvent control, individual replicate","[1]; dose 0.625 µM, wild-type C. elegans, single replicate",15.276% and 17.385% and 12.484%
same,remaining activity at 0.625 µM,"[1]; dose 0.625 µM, wild-type C. elegans, single replicate, read-out: in vitro complex I activity relative to solvent control, individual replicate",16.8%
same,remaining activity at 1.5 µM,"[1]; dose 1.5 µM, wild-type C. elegans, mean of replicates, read-out: in vitro complex I activity relative to solvent control, Mean",6.88%
same,"in vitro complex I activity relative to solvent control, individual replicate","[1]; dose 1.5 µM, wild-type C. elegans, single replicate",4.958% and 1.160% and 6.055% and 15.327%
same,remaining activity at 3 µM,"[1]; dose 3 µM, wild-type C. elegans, mean of replicates, read-out: in vitro complex I activity relative to solvent control, Mean",4.54%
same,"in vitro complex I activity relative to solvent control, individual replicate","[1]; dose 3 µM, wild-type C. elegans, single replicate",0.589% and 7.541% and 4.494% and 5.523%
same,remaining activity at 15 µM,"[1]; dose 15 µM, wild-type C. elegans, mean of replicates, read-out: in vitro complex I activity relative to solvent control, Mean",3.15%
same,"in vitro complex I activity relative to solvent control, individual replicate","[1]; dose 15 µM, wild-type C. elegans, single replicate",6.941% and 0.000% and 2.528% and 3.137%
same,remaining activity at 37.5 µM,"[1]; dose 37.5 µM, wild-type C. elegans, mean of replicates, read-out: in vitro complex I activity relative to solvent control, Mean",1.66%
same,"in vitro complex I activity relative to solvent control, individual replicate","[1]; dose 37.5 µM, wild-type C. elegans, single replicate",3.595% and 0.000% and 3.039%
same,remaining activity at 75 µM,"[1]; dose 75 µM, wild-type C. elegans, mean of replicates, read-out: in vitro complex I activity relative to solvent control, Mean",1.29%
same,"in vitro complex I activity relative to solvent control, individual replicate","[1]; dose 75 µM, wild-type C. elegans, single replicate",0.000% and 3.223% and 1.928%
same,IC50,[1]; [4],110 nM
same,Log IC50 C. elegans complex I,[1]; C. elegans mitochondria,-0.96 µM
same,IC50,[1]; [5],110 nM
same,IC50,"[1]; wild-type (N2) mitochondria, read-out: C. elegans complex I IC50",112 nM
same,IC50,[1]; [6],110 nM
same,LC50,[2]; read-out: C. elegans KCN Survival Assay LC50,8180 nM
same,Complex I IC50 ~Fold Change,[3]; B. taurus complex I IC50 relative to C. elegans complex I IC50,2.72
same,IC50,[3],300 nM
same,B. taurus: C. elegans IC50 Fold Change (Complex I IC50 ~Fold Change),[3]; complex I IC50 ratio bovine heart / C. elegans,2.72
same,IC50 Fold change,[3]; fold-change in IC50 between B. taurus and C. elegans complex I,2.72
same,Log IC50 B. taurus complex I,[3],-0.52 µM
